Reference: the kinase profiling compilation of Christmann-Franck et al. (2016)

Assays:
Assay in all cases: radiometric filter-binding kinase assay
[1] = test system: AKT1 (human), P31749 [S473D]
AURKA (human) = AURKA (human) (UniProt O14965)
BRSK1 (human) = BRSK1 (human) (UniProt Q8TDC3)
BRSK2 (human) = BRSK2 (human) (UniProt Q8IWQ3)
BTK (human) = BTK (human) (UniProt Q06187); conditions: compound 1.0 µM
CaMK1 (human) = CaMK1 (human) (UniProt Q14012)
DYRK2 (human) = DYRK2 (human) (UniProt Q92630)
DYRK3 (human) = DYRK3 (human) (UniProt O43781)
EPHA2 (human) = EPHA2 (human) (UniProt P29317)
EPHB1 (human) = EPHB1 (human) (UniProt P54762)
EPHB2 (human) = EPHB2 (human) (UniProt P29323)
EPHB4 (human) = EPHB4 (human) (UniProt P54760)
FLT1 (human) = FLT1 (human) (UniProt P17948)
GCK (human) = GCK (human) (UniProt Q12851)
HIPK1 (human) = HIPK1 (human) (UniProt Q86Z02)
HIPK2 (human) = HIPK2 (human) (UniProt Q9H2X6)
INSR (human) = INSR (human) (UniProt P06213)
JAK2 JH1 JH2 (human) = JAK2 JH1 JH2 (human) (UniProt O60674)
MAP2K1 (human) = MAP2K1 (human) (UniProt Q02750)
MAP3K1 (human) = MAP3K1 (human) (UniProt Q13233)
MAP3K11 (human) = MAP3K11 (human) (UniProt Q16584)
MAP3K5 (human) = MAP3K5 (human) (UniProt Q99683)
MAPK10 (human) = MAPK10 (human) (UniProt P53779)
MAPK11 (human) = MAPK11 (human) (UniProt Q15759)
MAPK8 (human) = MAPK8 (human) (UniProt P45983)
MAPK9 (human) = MAPK9 (human) (UniProt P45984)
MAPKAPK5 (human) = MAPKAPK5 (human) (UniProt Q8IW41)
MARK3 (human) = MARK3 (human) (UniProt P27448)
PIM1 (human) = PIM1 (human) (UniProt P11309)
PRKCA (human) = PRKCA (human) (UniProt P17252)
[2] = test system: RPS6KB1 (human), P23443 [T412E]
STK3 (human) = STK3 (human) (UniProt Q13188)
SYK (human) = SYK (human) (UniProt P43405); conditions: compound 10.0 µM
TAOK1 (human) = TAOK1 (human) (UniProt Q7L7X3)
TBK1 (human) = TBK1 (human) (UniProt Q9UHD2); conditions: compound 10.0 µM
YES1 (human) = YES1 (human) (UniProt P07947)

AKT1 (human), P31749 [S473D], sequence (P31749 whole entry S473D, looked up): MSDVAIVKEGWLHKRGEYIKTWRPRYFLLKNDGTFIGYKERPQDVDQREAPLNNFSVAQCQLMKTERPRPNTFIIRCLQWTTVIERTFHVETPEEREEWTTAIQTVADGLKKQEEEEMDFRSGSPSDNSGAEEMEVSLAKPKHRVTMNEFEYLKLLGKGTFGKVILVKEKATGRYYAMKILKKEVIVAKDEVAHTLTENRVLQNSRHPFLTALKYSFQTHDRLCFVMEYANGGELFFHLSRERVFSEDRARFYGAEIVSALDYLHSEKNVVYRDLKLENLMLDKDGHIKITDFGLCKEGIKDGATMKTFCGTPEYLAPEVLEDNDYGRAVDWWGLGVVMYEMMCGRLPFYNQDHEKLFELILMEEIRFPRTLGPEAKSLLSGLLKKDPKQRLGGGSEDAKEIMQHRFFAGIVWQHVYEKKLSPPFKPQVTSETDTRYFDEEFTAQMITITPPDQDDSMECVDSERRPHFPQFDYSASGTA
CaMK1 (human), sequence (Q14012 whole entry, looked up): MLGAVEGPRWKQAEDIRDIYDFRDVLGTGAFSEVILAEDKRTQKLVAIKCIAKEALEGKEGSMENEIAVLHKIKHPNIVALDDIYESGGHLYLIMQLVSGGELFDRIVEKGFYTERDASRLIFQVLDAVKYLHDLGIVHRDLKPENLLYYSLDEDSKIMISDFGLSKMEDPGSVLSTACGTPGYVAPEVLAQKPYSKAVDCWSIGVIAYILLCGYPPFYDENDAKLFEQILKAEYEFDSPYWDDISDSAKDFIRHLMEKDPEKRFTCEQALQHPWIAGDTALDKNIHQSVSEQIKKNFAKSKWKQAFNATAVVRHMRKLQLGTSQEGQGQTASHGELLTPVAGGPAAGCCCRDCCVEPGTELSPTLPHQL
DYRK3 (human), sequence (O43781 whole entry, looked up): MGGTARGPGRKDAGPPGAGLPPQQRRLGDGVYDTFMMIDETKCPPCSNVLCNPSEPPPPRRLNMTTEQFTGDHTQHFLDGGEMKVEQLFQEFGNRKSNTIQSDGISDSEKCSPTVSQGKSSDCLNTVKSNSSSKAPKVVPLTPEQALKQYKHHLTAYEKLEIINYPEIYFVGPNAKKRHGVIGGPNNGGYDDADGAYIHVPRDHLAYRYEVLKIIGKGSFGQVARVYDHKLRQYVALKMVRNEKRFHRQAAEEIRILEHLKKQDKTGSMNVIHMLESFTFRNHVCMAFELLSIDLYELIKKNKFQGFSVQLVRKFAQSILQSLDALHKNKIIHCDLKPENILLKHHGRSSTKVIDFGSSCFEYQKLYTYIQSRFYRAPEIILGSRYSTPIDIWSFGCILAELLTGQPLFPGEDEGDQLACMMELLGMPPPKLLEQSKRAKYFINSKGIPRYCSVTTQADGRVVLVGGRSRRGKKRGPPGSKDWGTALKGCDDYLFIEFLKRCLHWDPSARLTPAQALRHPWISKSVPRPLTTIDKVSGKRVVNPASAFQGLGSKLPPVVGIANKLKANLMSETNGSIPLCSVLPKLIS
BRSK1 (human), sequence (Q8TDC3 whole entry, looked up): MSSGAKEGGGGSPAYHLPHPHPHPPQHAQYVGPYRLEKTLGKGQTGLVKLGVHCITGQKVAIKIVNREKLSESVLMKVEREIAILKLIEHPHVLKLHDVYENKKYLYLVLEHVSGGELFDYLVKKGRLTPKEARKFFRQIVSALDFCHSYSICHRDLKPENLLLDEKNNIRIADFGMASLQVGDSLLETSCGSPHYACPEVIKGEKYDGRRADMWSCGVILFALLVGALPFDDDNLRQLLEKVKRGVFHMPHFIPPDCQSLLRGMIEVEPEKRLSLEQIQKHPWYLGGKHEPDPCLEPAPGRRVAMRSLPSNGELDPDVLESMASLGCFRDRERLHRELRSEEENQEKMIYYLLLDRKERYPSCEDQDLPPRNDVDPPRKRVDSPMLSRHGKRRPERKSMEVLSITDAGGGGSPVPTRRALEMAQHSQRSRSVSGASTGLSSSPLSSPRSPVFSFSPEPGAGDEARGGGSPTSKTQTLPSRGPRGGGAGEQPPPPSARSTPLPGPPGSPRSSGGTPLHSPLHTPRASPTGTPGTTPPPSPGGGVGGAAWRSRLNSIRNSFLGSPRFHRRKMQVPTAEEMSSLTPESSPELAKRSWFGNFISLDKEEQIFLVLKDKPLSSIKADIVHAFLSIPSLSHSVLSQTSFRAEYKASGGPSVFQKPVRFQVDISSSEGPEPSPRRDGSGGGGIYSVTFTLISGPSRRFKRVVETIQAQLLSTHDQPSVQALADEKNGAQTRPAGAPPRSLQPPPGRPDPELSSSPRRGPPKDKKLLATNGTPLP
HIPK1 (human), sequence (Q86Z02 whole entry, looked up): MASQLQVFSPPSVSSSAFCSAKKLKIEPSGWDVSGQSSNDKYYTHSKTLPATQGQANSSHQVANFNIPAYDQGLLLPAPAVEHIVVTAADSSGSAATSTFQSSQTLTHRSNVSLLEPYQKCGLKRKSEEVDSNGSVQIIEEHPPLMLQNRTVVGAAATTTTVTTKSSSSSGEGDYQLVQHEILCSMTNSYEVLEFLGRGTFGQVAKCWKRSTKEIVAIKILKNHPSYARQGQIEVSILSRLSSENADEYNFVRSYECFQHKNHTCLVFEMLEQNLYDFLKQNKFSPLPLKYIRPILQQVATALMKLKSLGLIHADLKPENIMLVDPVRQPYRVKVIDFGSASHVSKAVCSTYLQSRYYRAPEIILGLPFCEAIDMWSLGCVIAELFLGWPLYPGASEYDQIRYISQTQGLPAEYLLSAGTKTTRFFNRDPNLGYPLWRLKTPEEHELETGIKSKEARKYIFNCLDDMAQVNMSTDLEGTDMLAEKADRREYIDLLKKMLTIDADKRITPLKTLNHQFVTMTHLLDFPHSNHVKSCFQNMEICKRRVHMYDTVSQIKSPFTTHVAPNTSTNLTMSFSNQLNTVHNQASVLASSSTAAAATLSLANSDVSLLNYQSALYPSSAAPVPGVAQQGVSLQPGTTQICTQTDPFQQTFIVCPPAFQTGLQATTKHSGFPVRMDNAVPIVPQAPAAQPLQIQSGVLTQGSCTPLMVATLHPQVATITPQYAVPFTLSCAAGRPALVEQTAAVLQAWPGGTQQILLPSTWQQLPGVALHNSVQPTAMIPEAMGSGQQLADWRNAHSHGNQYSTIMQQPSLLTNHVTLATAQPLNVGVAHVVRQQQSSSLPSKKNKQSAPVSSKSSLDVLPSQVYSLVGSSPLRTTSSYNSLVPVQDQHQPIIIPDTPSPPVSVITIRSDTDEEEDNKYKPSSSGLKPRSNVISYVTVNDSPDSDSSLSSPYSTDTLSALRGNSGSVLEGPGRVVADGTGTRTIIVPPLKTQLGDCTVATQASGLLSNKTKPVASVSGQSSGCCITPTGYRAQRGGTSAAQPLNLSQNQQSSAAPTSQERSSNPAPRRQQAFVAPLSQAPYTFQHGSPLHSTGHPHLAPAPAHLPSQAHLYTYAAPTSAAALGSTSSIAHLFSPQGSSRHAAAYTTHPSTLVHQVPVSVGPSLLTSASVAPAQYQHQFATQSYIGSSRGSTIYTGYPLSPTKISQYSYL
MAPK9 (human), sequence (P45984 whole entry, looked up): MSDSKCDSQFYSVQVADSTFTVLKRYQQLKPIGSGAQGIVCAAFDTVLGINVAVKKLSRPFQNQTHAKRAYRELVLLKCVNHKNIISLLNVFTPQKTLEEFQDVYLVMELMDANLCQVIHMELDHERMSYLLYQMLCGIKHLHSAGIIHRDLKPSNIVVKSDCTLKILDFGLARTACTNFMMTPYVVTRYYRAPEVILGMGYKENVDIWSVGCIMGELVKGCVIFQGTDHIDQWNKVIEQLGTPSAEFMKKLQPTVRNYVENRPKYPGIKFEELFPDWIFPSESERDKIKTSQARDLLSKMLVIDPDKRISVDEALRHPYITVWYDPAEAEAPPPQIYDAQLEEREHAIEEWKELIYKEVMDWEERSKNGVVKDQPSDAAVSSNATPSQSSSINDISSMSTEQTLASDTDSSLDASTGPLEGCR
STK3 (human), sequence (Q13188 whole entry, looked up): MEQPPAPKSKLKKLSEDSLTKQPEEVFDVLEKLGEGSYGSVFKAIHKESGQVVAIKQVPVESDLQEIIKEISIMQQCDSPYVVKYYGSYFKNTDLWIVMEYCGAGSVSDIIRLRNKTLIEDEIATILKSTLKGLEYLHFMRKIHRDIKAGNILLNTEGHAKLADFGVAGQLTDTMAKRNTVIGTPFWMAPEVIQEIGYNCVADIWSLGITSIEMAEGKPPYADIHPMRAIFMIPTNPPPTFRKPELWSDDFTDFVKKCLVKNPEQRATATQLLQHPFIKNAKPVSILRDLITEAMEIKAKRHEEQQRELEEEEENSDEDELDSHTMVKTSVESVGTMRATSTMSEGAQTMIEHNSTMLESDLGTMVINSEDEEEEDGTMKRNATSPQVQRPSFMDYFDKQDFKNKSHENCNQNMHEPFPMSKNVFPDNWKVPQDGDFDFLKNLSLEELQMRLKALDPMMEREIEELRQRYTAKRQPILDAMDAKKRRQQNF
RPS6KB1 (human), P23443 [T412E], sequence (P23443 whole entry T412E, looked up): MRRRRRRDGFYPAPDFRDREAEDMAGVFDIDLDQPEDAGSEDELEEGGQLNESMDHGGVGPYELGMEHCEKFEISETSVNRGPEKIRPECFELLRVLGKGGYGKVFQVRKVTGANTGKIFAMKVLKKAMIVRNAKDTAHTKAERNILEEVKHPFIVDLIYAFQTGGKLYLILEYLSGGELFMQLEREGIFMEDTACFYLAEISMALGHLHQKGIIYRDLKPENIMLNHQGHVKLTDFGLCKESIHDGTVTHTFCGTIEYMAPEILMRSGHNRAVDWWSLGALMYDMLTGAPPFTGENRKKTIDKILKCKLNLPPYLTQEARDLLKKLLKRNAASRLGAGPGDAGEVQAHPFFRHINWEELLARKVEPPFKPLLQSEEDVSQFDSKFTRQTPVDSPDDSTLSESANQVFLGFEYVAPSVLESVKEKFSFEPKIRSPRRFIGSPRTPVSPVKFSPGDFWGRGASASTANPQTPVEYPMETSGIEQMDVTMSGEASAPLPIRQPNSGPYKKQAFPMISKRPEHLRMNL

**Q.** Which results are given for `COc1cc(C(=O)N2CCOCC2)c(F)cc1Nc1ncc(C(F)(F)F)c(NC2CC2)n1`?
**A.** residual activity ([1]; compound 1.0 µM): 93%; residual activity ([1]; compound 10.0 µM): 97%; residual activity (AURKA (human); compound 1.0 µM): 105%; residual activity (AURKA (human); compound 10.0 µM): 81%; residual activity (BRSK1 (human); compound 1.0 µM): 85%; residual activity (BRSK1 (human); compound 10.0 µM): 69%; residual activity (BRSK2 (human); compound 1.0 µM): 88%; residual activity (BRSK2 (human); compound 10.0 µM): 51%; residual activity (BTK (human)): 115%; residual activity (CaMK1 (human); compound 1.0 µM): 92%; residual activity (CaMK1 (human); compound 10.0 µM): 51%; residual activity (DYRK2 (human); compound 1.0 µM): 40%; residual activity (DYRK2 (human); compound 10.0 µM): 9%; residual activity (DYRK3 (human); compound 1.0 µM): 88%; residual activity (DYRK3 (human); compound 10.0 µM): 51%; residual activity (EPHA2 (human); compound 1.0 µM): 81%; residual activity (EPHA2 (human); compound 10.0 µM): 93%; residual activity (EPHB1 (human); compound 1.0 µM): 93%; residual activity (EPHB1 (human); compound 10.0 µM): 91%; residual activity (EPHB2 (human); compound 1.0 µM): 92%; residual activity (EPHB2 (human); compound 10.0 µM): 97%; residual activity (EPHB4 (human); compound 1.0 µM): 94%; residual activity (EPHB4 (human); compound 10.0 µM): 94%; residual activity (FLT1 (human); compound 1.0 µM): 55%; residual activity (FLT1 (human); compound 10.0 µM): 14%; residual activity (GCK (human); compound 1.0 µM): 73%; residual activity (GCK (human); compound 10.0 µM): 25%; residual activity (HIPK1 (human); compound 1.0 µM): 92%; residual activity (HIPK1 (human); compound 10.0 µM): 49%; residual activity (HIPK2 (human); compound 1.0 µM): 70%; residual activity (HIPK2 (human); compound 10.0 µM): 28%; residual activity (INSR (human); compound 1.0 µM): 50%; residual activity (INSR (human); compound 10.0 µM): 3%; residual activity (JAK2 JH1 JH2 (human); compound 1.0 µM): 79%; residual activity (JAK2 JH1 JH2 (human); compound 10.0 µM): 52%; residual activity (MAP2K1 (human); compound 1.0 µM): 95%; residual activity (MAP2K1 (human); compound 10.0 µM): 81%; residual activity (MAP3K1 (human); compound 1.0 µM): 90%; residual activity (MAP3K1 (human); compound 10.0 µM): 109%; residual activity (MAP3K11 (human); compound 1.0 µM): 35%; residual activity (MAP3K11 (human); compound 10.0 µM): 9%; residual activity (MAP3K5 (human); compound 1.0 µM): 66%; residual activity (MAP3K5 (human); compound 10.0 µM): 13%; residual activity (MAPK10 (human); compound 1.0 µM): 80%; residual activity (MAPK10 (human); compound 10.0 µM): 48%; residual activity (MAPK11 (human); compound 1.0 µM): 98%; residual activity (MAPK11 (human); compound 10.0 µM): 101%; residual activity (MAPK8 (human); compound 1.0 µM): 83%; residual activity (MAPK8 (human); compound 10.0 µM): 47%; residual activity (MAPK9 (human); compound 1.0 µM): 108%; residual activity (MAPK9 (human); compound 10.0 µM): 84%; residual activity (MAPKAPK5 (human); compound 1.0 µM): 77%; residual activity (MAPKAPK5 (human); compound 10.0 µM): 49%; residual activity (MARK3 (human); compound 1.0 µM): 91%; residual activity (MARK3 (human); compound 10.0 µM): 61%; residual activity (PIM1 (human); compound 1.0 µM): 101%; residual activity (PIM1 (human); compound 10.0 µM): 94%; residual activity (PRKCA (human); compound 1.0 µM): 96%; residual activity (PRKCA (human); compound 10.0 µM): 101%; residual activity ([2]; compound 1.0 µM): 89%; residual activity ([2]; compound 10.0 µM): 68%; residual activity (STK3 (human); compound 1.0 µM): 111%; residual activity (STK3 (human); compound 10.0 µM): 92%; residual activity (SYK (human)): 44%; residual activity (TAOK1 (human); compound 1.0 µM): 99%; residual activity (TAOK1 (human); compound 10.0 µM): 80%; residual activity (TBK1 (human)): 26%; residual activity (YES1 (human); compound 1.0 µM): 89%; residual activity (YES1 (human); compound 10.0 µM): 110%
